In patent US6337089B1, “Microcapsule containing core material and method for producing the same” (Seiwa Kasei Company, Limited, priority 1998, dated 2002):

Experiment: Analysis Method 8: ultraviolet ray transmittance on surgical tape
Settings: wave-length of 310 nm; applied amounts differ per sample
Procedure: A measuring sample was applied on a surgical tape (TRANSPORE TAPE, manufactured by 3M Corp.), this was irradiated with a ultraviolet ray, and the amount of the transmitted light was measured by a SPF analyzer, (UV-1000S, manufactured by LABSPHERE Corp., US). The numerical value in the examples is an average of 40 values. The amount of the sample applied on a surgical tape is 2 μl/cm^2 and a certain amount when measuring SPF value and ultraviolet ray transmittance, respectively.

Structure (SMILES): CCCCC(CC)COC(=O)C=Cc1ccc(OC)cc1 (stereo not shown) [2-ethylhexyl p-methoxy-cinnamate, 2-ethylhexyl p-methoxycinnamate]
- Ultraviolet ray transmittance: 2.2
